# What was measured:
# RXRα promoter region = test: ChIP of Hes1 and HDAC1 in BMMs; assay type: cell-based, Murine; conditions: polyI:C 1 μg/ml 1, 3 and 6 hours; FIG. 9e,f
# Protocol: FIG. 9: PolyI:C transcriptionally represses RXRα through recruitment of transcriptional repression machinery. a, BMMs were stimulated with media or polyI:C (1 μg/ml) for 2 hrs, followed by actinomycin D (ActD) (5 μg/ml) for 0, 15, 30, 60, 120 min. BMMs were stimulated with polyI:C (1 μg/ml) for 4 hrs or 8 hrs. RNA was analyzed by Q-PCR. b, Diagram of RXRα promoter based on promoter analysis software (MatInspector). BMMs were stimulated with LPS (10 ng/ml) or polyI:C (1 μg/ml) for 4 hrs. RNA was analyzed by Q-PCR. Wildtype, IRF3^−/− and IFNAR^−/− BMMs were stimulated with polyI:C (1 μg/ml) for 4 hrs. RNA was analyzed by Q-PCR. c, pCMV-RAW 264.7 cells (MT) or pCMV-Hes1-RAW 264.7 cells (Hes1) RNA was analyzed by Q-PCR. d, RAW264.7 cells transfected with siNS or siHes1 duplex oligos were stimulated with polyI:C (1 μg/ml) for 8 hours. RNA was analyzed by Q-PCR. e, f, BMMs were stimulated with polyI:C (1 μg/ml) for 1, 3 and 6 hours. Following stimulation, chromatin immunoprecipitation (ChIP) was performed with anti-Hes1 or anti-HDAC1 antibodies on sonicated samples, washed thoroughly and analyzed by PCR/agarose gel electrophoresis. PCR products on gel are quantified by ImageJ, normalized to Input. g, BMMs were pre-treated with Trichostatin A (TSA) (50 ng/ml) overnight and then stimulated with polyI:C (1 μg/ml) for 4 and 8 hrs. RNA was analyzed by Q-PCR. […]
# CRBPII = test: BMM Q-PCR: CRBPII; assay type: cell-based, Murine; conditions: LG268 10 nM with polyI:C 1 μg/ml; IRF3^−/− and IFNAR^−/− BMMs; FIG. 10a
# [1] = test system: PXR/RXR ER6 binding region of CYP3A4; test: ChIP with anti-RXRα antibody at CYP3A4; assay type: cell-based, human; conditions: combinatorial treatment with rifampicin 25 μM and polyI:C, 24 hours; FIG. 10g and h
# Protocol: FIG. 10: PolyI:C transcriptional repression of RXRα is critical for repression of nuclear receptor target genes. a, Wildtype, IRF3^−/− and IFNAR^−/− BMMs were stimulated with Control (DMSO), or LG268 (10 nM) with or without polyI:C (1 μg/ml). RNA was analyzed by Q-PCR. b, pCMV-RAW 264.7 cells (MT) or pCMV-Hes1-RAW 264.7 cells (Hes1) were stimulated with Control (DMSO) and 9cRA with or without polyI:C (1 μg/ml) for 24 hrs. RNA was analyzed by Q-PCR. c, RAW264.7 cells transfected with siNS or siHes1 duplex oligos were stimulated with Control (DMSO) and 9cRA (10 μM) with or without polyI:C (1 μg/ml) for 24 hours. RNA was analyzed by Q-PCR. d, pBabe-RAW 264.7 cells (Raw_MT) and pBabe-RXRα-RAW264.7 cells (Raw-RXRα) were stimulated with Control (DMSO) or LG268 (10 nM) with or without polyI:C (1 μg/ml) for 24 hrs. RNA was analyzed by Q-PCR. e, pBabe-Huh7 cells (Huh7 MT) and pBabe-RXRα-Huh7 cells (Huh7-RXRα) were stimulated with Control (DMSO) and rifampicin (25 μM) with or without polyI:C (2 μg/ml, transfected). RNA was analyzed by Q-PCR. f, pBabe-Huh7 cells (Huh7 MT) and pBabe-RXRα-Huh7 cells (Huh7_RXRα) were stimulated with Control (DMSO) and ASA (20 μg/ml) with or without polyI:C (2 μg/ml, transfected). RNA was analyzed by Q-PCR. g,h, BMMs were stimulated with rifampicin (25 μM) and polyI:C (1 μg/ml) for 24 hours. […] PCR products on gel are quantified by ImageJ, normalized to Input. […]
# Huh7 cells = test: Rhodamine 123 assay, mitochondrial membrane potential; assay type: cell-based, human; conditions: Huh7 cells co-treated with ASA 20 μg/ml and polyI:C 1 μg/ml transfected, 24 hours; mock-transfected vs RXRα overexpressing
# Protocol: FIG. 15: PolyI:C potentiation of ASA-induced mitochondrial damage. pBabe-Huh7 cells (Huh7_MT) and pBabe-RXRα-Huh7 cells (Huh7 RXRα) were stimulated with Control (DMSO) and ASA (20 μg/ml) with or without polyI:C (1 μg/ml, transfected) for 24 hours. Cells were treated with 5 μg/ml of rhodamine 123 (Invitrogen) for 30 min, trypsinized and resuspended in PBS. Flow cytometry was done to determine rhodamine 123 uptake.
# [2] = mouse, in vivo
# [3] = mouse, in vivo; remark: listed apart in the source
substance,measurement,setting,value
polyinosinic:polycytidylic acid [polyI:C],recruitment of Hes1 and HDAC1 (ChIP),RXRα promoter region,promotes specific recruitment of Hes1 and HDAC1 to the RXRα promoter region
same,LG268 induction of CRBPII,CRBPII,repressed by polyI:C in IFNAR^−/− BMMs but not IRF3^−/− BMMs
same,RXRα present on CYP3A4 promoter (ChIP),[1],maximal loss of RXRα in the PXR/RXR ER6 binding region of CYP3A4
same,mitochondrial membrane potential (rhodamine 123),Huh7 cells,"loss of mitochondrial membrane potential in mock-transfected Huh7 cells co-treated with ASA and polyI:C, but not in Huh7 cells overexpressing RXRα"
same,LCA-mediated serum ALT increase and liver damage,[2],failed to promote LCA-mediated increases of serum ALT levels or enhance liver damage
same,"serum ALT levels, agent alone",[2],did not significantly increase serum ALT levels
same,"hepatotoxicity, agent alone",[3],did not cause significant hepatotoxicity

# From US20090181910A1, “METHOD OF PREVENTION AND ALLEVIATION OF TOXICITY BY MODULATION OF IRF3” (priority 2006, published 2009)
